Assay [1] has as its target T1, ΔF508-CFTR (Homo sapiens, UniProt P13569, DEL508-508).
T1 construct: host or cells: CFBE41o-, doxycycline-inducible
Put plainly: CFTR cell surface levels using HRP-tagged ΔF508-CFTR expressing CFBE cells, in the presence of a co-corrector. In kind it is cell-based. Conditions: HRP-tagged ΔF508-CFTR expressing CFBE cells, in the presence of 3 μM co-corrector; for EC50: read-out: EC50. Put shortly: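 Cells were seeded with 0.5 μg/mL doxycycline and held 68 h at 37 °C. Test compounds plus 3 μM co-corrector (final 0.1% DMSO) were then added for 20 h at 33 °C. Washed cells received HRP substrate, and luminescence was normalized between DMSO and 3 μM co-corrector controls.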

For assay [2], the target named is T1, ΔF508-CFTR. Put plainly: CFTR cell surface levels using HRP-tagged ΔF508-CFTR expressing CFBE cells, intrinsic corrector capacity. The class given is cell-based. Particulars: for EC50: read-out: EC50. Put shortly:
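Here the cells express ΔF508-CFTR with horseradish peroxidase inserted in extracellular loop 4, so only rescued channel at the surface gives luminescent signal. Compounds act on their own, 20 h at the reduced temperature of 33 °C; values are percent activity relative to DMSO and a 3 μM corrector.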

Setting [3] is: HRP-tagged ΔF508-CFTR expressing CFBE cells, intrinsic corrector capacity (no co-corrector), 33° C., 20 hours.
Setting [4] is: HRP-tagged ΔF508-CFTR CFBE41o- cells, compounds alone (intrinsic corrector capacity), 20 hours at 33° C., positive control 3 μM corrector.
The mark [5] stands for this setting: HRP-tagged ΔF508-CFTR CFBE41o- cells, compounds alone (intrinsic corrector capacity), 20 hours at 33° C.

From patent US9796711B2, “Substituted pyrazolo[3,4-b]pyridin-6-carboxylic acids and method of use” (AbbVie S.àr.l., priority 2015, dated 2017) come the findings set out here.

As usually defined, the EC50 is the midpoint of the concentration-response curve.

T1 sequence (P13569 with tags, fused parts or gaps DEL508-508): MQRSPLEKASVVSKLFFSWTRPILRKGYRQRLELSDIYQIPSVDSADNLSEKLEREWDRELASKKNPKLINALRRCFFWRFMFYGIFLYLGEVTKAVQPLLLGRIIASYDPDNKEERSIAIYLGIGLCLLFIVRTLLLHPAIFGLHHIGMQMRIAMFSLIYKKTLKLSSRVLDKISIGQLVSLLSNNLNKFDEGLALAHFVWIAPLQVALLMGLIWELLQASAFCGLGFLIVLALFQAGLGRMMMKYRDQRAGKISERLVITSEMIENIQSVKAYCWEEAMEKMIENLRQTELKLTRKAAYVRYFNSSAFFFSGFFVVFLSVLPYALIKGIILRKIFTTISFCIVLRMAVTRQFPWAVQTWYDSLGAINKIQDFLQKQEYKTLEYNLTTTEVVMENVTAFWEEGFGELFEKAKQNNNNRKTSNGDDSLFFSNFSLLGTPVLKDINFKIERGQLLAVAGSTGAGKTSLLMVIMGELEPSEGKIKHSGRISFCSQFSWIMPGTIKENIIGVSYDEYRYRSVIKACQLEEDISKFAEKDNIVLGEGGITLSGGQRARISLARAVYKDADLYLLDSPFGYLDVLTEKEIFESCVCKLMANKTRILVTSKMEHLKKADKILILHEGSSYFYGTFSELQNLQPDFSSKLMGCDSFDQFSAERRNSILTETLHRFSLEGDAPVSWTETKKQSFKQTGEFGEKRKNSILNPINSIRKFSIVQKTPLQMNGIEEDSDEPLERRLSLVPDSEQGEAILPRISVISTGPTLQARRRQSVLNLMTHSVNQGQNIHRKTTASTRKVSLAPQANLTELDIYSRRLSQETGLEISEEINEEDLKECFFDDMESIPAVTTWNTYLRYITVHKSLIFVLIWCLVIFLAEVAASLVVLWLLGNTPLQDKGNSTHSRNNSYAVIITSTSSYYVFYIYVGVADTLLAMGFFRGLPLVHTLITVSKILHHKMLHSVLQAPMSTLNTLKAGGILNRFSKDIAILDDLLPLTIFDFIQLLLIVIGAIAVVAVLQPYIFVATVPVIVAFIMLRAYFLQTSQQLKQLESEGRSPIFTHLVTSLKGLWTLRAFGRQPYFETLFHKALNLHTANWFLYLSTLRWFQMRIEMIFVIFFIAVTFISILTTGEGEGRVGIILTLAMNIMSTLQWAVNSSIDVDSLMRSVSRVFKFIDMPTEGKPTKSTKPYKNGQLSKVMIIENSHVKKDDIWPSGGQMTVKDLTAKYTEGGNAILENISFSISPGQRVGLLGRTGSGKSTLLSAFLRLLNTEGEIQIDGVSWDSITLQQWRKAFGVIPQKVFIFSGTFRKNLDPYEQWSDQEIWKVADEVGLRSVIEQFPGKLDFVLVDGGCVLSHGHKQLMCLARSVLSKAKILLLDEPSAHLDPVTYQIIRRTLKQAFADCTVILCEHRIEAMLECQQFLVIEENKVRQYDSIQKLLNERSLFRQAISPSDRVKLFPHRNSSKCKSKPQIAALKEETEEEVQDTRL

`CC1CCN(CCC2CCN(c3cc(C(=O)O)nc4c3c(C3CCC3)nn4-c3ccccc3)CC2)CC1` [compound 687, 3-cyclobutyl-4-{4-[2-(4-methylpiperidin-1-yl)ethyl]piperidin-1-yl}-1-phenyl-1H-pyrazolo[3,4-b]pyridine-6-carboxylic acid]: at ΔF508-CFTR [1], the “% Activation” value is 454% and the EC50 came out at 89.7 nM. At ΔF508-CFTR [2] (setting [3]), the “% Activation” value stood at 264.95% and the EC50 worked out at 171 nM.
As to `O=C(O)c1cc(N2CCC(N3CCN(C4CC4)CC3)CC2)c2c(C3CCC3)nn(-c3ccccc3)c2n1` [compound 738, 3-cyclobutyl-4-[4-(4-cyclopropylpiperazin-1-yl)piperidin-1-yl]-1-phenyl-1H-pyrazolo[3,4-b]pyridine-6-carboxylic acid], at ΔF508-CFTR [1], the “% Activation” value was 472.1% and the EC50 is 110 nM. Besides, on ΔF508-CFTR [2] (setting [3]), the “% Activation” value came out at 267.6% and the concentration giving a half-maximal response (EC50) turned out to be 245 nM.
Take `N#CC1CCN(c2ccc(-c3cc(C(=O)O)nc4c3c(C3CCC3)nn4C3CCCCC3)cn2)CC1` [compound 220, 4-[6-(4-cyanopiperidin-1-yl)pyridin-3-yl]-3-cyclobutyl-1-cyclohexyl-1H-pyrazolo[3,4-b]pyridine-6-carboxylic acid]: the results for the “% Activation” value at ΔF508-CFTR [1] and at ΔF508-CFTR [2] (setting [4]) were 470.77% and 245.37%, respectively. The EC50 at ΔF508-CFTR [1] was determined as 369 nM; at ΔF508-CFTR [2] (setting [5]), 786 nM.
Turning to `CC(C)c1nn(-c2ccc(F)cc2)c2nc(C(=O)O)cc(N3CCC(C(C)(C)O)CC3)c12` [compound 656, 1-(4-fluorophenyl)-4-[4-(2-hydroxypropan-2-yl)piperidin-1-yl]-3-(propan-2-yl)-1H-pyrazolo[3,4-b]pyridine-6-carboxylic acid], on ΔF508-CFTR [1], the “% Activation” value came out at 415.7% and the EC50 is 191 nM. Moreover, on ΔF508-CFTR [2] (setting [3]), the “% Activation” value is recorded as 287.7% and the EC50 turned out to be 437 nM.
In the same order, the values of `COC1CCN(C2CCN(c3cc(C(=O)O)nc4c3c(C3CCC3)nn4-c3ccc(F)cc3)CC2)CC1` [compound 892, 3-cyclobutyl-1-(4-fluorophenyl)-4-(4-methoxy[1,4′-bipiperidin]-1′-yl)-1H-pyrazolo[3,4-b]pyridine-6-carboxylic acid] are 428.72%, 602 nM, 196.44% and 603 nM.
As for `O=C(O)c1cc(N2CCC(CN3CCCC3)CC2)c2c(C3CCC3)nn(-c3ccccc3)c2n1` [compound 557, 3-cyclobutyl-1-phenyl-4-{4-[(pyrrolidin-1-yl)methyl]piperidin-1-yl}-1H-pyrazolo[3,4-b]pyridine-6-carboxylic acid], on ΔF508-CFTR [1], the “% Activation” value is reported as 418.2% and the EC50 stood at 200 nM. For the same compound, on ΔF508-CFTR [2] (setting [3]), the “% Activation” value was 221.7% and the EC50 was found to be 444 nM.
Take `CC(C)c1nn(-c2cccc(N3CCOCC3)c2)c2nc(C(=O)O)cc(-c3ccc(N(C)C)nc3)c12` [compound 89, 4-[6-(dimethylamino)pyridin-3-yl]-1-[3-(morpholin-4-yl)phenyl]-3-(propan-2-yl)-1H-pyrazolo[3,4-b]pyridine-6-carboxylic acid]: the results for the “% Activation” value on ΔF508-CFTR [1] and on ΔF508-CFTR [2] (setting [4]) were 482.05% and 310.15%, respectively. The EC50 on ΔF508-CFTR [1] is 1240 nM; on ΔF508-CFTR [2] (setting [5]), 2530 nM.
